A short description of data set [1]: Solubility of the compound in DMSO. It is filed as physicochemical.
Data set [2] relates to Mus musculus. As to the kind of experiment: Toxicity in Swiss mouse assessed as effect on forced locomotory activity at 100 mg/kg administered via oral gavage for 1 hr measured up to 4 mins post dose by rotarod test. It is filed as organism-based. Particulars: in vivo. Background: The rotarod test checks motor coordination on a turning rod.
The subject of data set [3] is Mus musculus. As to the kind of experiment: Toxicity in Swiss mouse assessed as effect on spontaneous locomotory activity by measuring number of areas crossed at 100 mg/kg administered via oral gavage for 1 hr measured up to 5 mins post dose by open field test (reference value: 27 +/- 6 ). It is filed as organism-based. To be noted: in vivo.
Data set [4] concerns Mus musculus. As to the kind of experiment: Antinociceptive activity in CFA-induced arthritic pain Swiss mouse model assessed as inhibition of mechanical hyperalgesia by measuring paw withdrawal threshold at 300 mg/kg administered via oral gavage measured at 2 hrs post dose by Von Frey filament assay relative to control. It is filed as functional.
Data set [5] has as its system Mus musculus. Nature of the data set: Antinociceptive activity in CFA-induced arthritic pain Swiss mouse model assessed as inhibition of mechanical hyperalgesia by measuring paw withdrawal threshold at 100 mg/kg administered via oral gavage measured up to 4 hrs post dose by Von Frey filament assay. It is filed as functional, organism-based.
For data set [6], the system named is Mus musculus. As to the kind of experiment: Antinociceptive activity in Swiss mouse assessed as inhibition of capsaicin induced nociception by measuring paw licking time at 100 mg/kg administered via oral gavage for 1 hr followed by capsaicin challenge measured for 5 mins post dose relative to control. It is filed as functional.
Data set [7] concerns Mus musculus. As to the kind of experiment: Antinociceptive activity in CFA-induced arthritic pain Swiss mouse model assessed as inhibition of mechanical hyperalgesia by measuring paw withdrawal threshold administered via oral gavage measured at 2 hrs post dose by Von Frey filament assay. It is filed as functional. To be noted: for ED50: read-out: ID50 (the source's name); for minimal effective dose: read-out: MED.

Data set [8] has as its system Mus musculus. Nature of the data set: Antinociceptive activity in CFA-induced arthritic pain Swiss mouse model assessed as inhibition of mechanical hyperalgesia by measuring paw withdrawal threshold at 100 mg/kg administered via oral gavage measured at 2 hrs post dose by Von Frey filament assay relative to control. It is filed as functional.
For data set [9], the system named is Mus musculus. Nature of the data set: Antinociceptive activity in CFA-induced arthritic pain Swiss mouse model assessed as inhibition of mechanical hyperalgesia by measuring paw withdrawal threshold at 100 mg/kg administered via oral gavage measured up to 2 hrs post dose by Von Frey filament assay. It is filed as functional, organism-based.

Activity calls are given as the source filed them.

Regarding `Cc1nc2c(c(C(F)(F)F)n1)CCc1ccccc1-2`, the solubility entry in data set [1] was “Insoluble”.
Take `CSc1nc2c(c(C(F)(F)F)n1)CCc1ccccc1-2`: the Activity result is on record as “Non-Toxic” with Mus musculus [2] and 23 in the data set on Mus musculus [3].
The term inhibition in vivo denotes the relative decrease from the control value, in per cent. With `CC(C(=O)O)c1cccc(C(=O)c2ccccc2)c1` (stereo unspecified) [KETOPROFEN], the Imax in the data set on Mus musculus [4] is recorded as 75%; with Mus musculus [8], 70%. The inhibition result in the data set on Mus musculus [5] is “Active”. Besides, the Activity entry is recorded as “Non-Toxic” in the data set with Mus musculus [2] and 38 in the data set with Mus musculus [3]. Moreover, the inhibition in vivo at 100 mg/kg in the data set on Mus musculus [6] stood at 81%. Also, the ED50 in the data set on Mus musculus [7] amounted to 144 mg/kg. Moreover, the minimal effective dose in the data set with Mus musculus [7] lay within 100 to 300 mg/kg.
As for `Nc1nc2c(c(C(F)(F)F)n1)CCc1ccccc1-2`, the Activity result in the data set on Mus musculus [2] is “Non-Toxic”; in the data set on Mus musculus [3], 22.
On to `FC(F)(F)c1ncnc2c1CCc1ccccc1-2`, for which the solubility entry in data set [1] is recorded as “Insoluble”.
In the case of `FC(F)(F)c1nc(-c2ccccc2)nc2c1CCc1ccccc1-2`, the Activity result in the data set with Mus musculus [2] is “Non-Toxic”. Moreover, the inhibition entry with Mus musculus [9] was “Active”. Also, the Activity with Mus musculus [3] stood at 25. Besides, the solubility entry in data set [1] was “Soluble”. Besides, the inhibition in vivo at 100 mg/kg with Mus musculus [6] was 65%. Besides, in the data set with Mus musculus [7], the ED50 was found to be 241 mg/kg and the minimal effective dose stood at 100 mg/kg. The Imax with Mus musculus [8] is 64 - 71%.
`FC(F)(F)c1nc(-n2cccc2)nc2c1CCc1ccccc1-2`: the Activity entry with Mus musculus [2] is on record as “Non-Toxic”; in the data set with Mus musculus [3], 23. The solubility entry in [1] was “Soluble”. Further, the inhibition in vivo at 100 mg/kg in the data set on Mus musculus [6] is 67%.

Source of the values: ChEMBL document CHEMBL3856237, “Synthesis and antinociceptive activity of new 2-substituted 4-(trifluoromethyl)-5,6-dihydrobenzo[h]quinazolines” (Bioorg Med Chem Lett, 2016).
